From paper PMC11460631, “Inhibition of transient receptor potential vanilloid 3 channels by antimalarial hydroxychloroquine alleviates TRPV3-dependent dermatitis” (The Journal of Biological Chemistry, 2024)

Experiments:
[1] = system: TNF-α, IL-6, IgE, IL-4 in mouse dorsal skin tissues; experiment: Carvacrol-induced AD-like mouse model: inflammatory factors by ELISA; assay type: in vivo
Description: We therefore generated a carvacrol-induced AD mouse model to test the effect of HCQ.
To generate an AD-like mice model, 2% carvacrol (dissolved in 30% ethanol solution) was topically smeared onto the mice dorsum 1 day after hair removal with a depilatory cream (Vetin Depilatory Cream). Mice received a topical administration of an equal volume (200 μl) of 2% carvacrol or in the presence of 2 mg/ml HCQ. […] After the application of carvacrol for 5 days, the external appearance of mice was photographed and then sampled. The external appearance was graded based on three aspects: thickness, erythema/bleeding, and dryness/desquamation, with severity assessed on a score of 0 to 4. The degree of thickness was measured by the thickness of the skin in H&E staining. Skin tissues were either fixed in 4% paraformaldehyde or placed in PBS buffer containing 1% protease inhibitor, facilitating subsequent steps of paraffin embedding or ELISA experiments.
Animal skin tissues were placed in PBS buffer containing 1% protease inhibitors, then homogenized, and centrifuged for supernatants. Cytokine concentrations of supernatants (IL-4, IL-6, TNF-α, and IgE) were measured using ELISA kits (Tsingke) according to the manufacturer's instructions. The absorption at 450 nm was measured by a microplate reader (Thermo Multiskan MK3).

[2] = target: T1, TRPV3 L670 alanine mutation (Homo sapiens, UniProt Q8NET8, L670A); experiment: Whole-cell recording of TRPV3 L670 alanine mutant; assay type: cell-based; conditions: 1 mM 2-APB, ± 80 mV
T1 construct: YFP or GFP; expressed in transfected cells; host or cells: HEK293T
T1 sequence (Q8NET8 1-790 L670A): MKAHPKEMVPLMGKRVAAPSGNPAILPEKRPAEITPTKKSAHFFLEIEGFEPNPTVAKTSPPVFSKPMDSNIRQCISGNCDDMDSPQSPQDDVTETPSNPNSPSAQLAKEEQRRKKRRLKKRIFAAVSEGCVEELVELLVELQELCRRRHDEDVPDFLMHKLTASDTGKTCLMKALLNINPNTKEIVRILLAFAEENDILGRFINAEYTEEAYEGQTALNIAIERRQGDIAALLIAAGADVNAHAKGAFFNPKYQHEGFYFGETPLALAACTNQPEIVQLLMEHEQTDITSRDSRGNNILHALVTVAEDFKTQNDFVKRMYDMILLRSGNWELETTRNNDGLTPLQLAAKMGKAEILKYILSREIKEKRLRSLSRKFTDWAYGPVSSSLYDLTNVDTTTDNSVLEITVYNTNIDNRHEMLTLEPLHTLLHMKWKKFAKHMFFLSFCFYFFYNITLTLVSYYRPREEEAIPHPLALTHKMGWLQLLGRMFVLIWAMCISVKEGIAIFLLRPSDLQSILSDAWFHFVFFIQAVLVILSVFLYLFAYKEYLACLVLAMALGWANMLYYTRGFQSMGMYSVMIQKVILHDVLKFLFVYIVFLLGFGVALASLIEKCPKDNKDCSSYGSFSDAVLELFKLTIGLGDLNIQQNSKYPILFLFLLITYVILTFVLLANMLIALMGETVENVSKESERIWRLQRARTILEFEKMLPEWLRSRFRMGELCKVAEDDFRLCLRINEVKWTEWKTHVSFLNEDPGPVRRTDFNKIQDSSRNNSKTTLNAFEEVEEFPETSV
Source text: As we mentioned above, HCQ may act as a pore blocker of TRPV3. To probe the binding configuration of HCQ to TRPV3, we carried out molecular docking using Rosetta suite (https://rosettacommons.org) ([21]) and validated the docking models with point mutations in TRPV3 (Fig. 4A). […] Furthermore, when we introduced L670A to L591A mutant, we also observed a left shift on the concentration–response curve on this double mutant as compared to L591A mutant (Fig. 4H).
Figure 4 Residues of the pore domain are critical for HCQ inhibition on TRPV3.A, left panel, docking model of HCQ to the pore domain of TRPV3 structure (6uw4). Right panels, top view and side view of the HCQ-binding pocket. B-J, representative whole-cell recording of TRPV3 and mutants in response to 1 mM 2-APB, the mixture of 1 mM 2-APB and concentration gradients of HCQ with the holding potential of ± 80 mV. K, concentration–response curves of HCQ in WT TRPV3 and mutants (n = 3–5 cells). L, quantification of the inhibitory ratio of HCQ (100 μM) on WT, L591A, and N671Q. […]
All data from whole-cell recordings were analyzed in Igor Pro (WaveMetrics). IC50 values were determined by fitting the Hill equation to concentration-response relationships. […]

[3] = mouse tissues, HCQ 2 mg/ml topical with 2% carvacrol, 5 days

IC50 [2]: 0.17 ± 0.04 µM
SMILES: CCN(CCO)CCCC(C)Nc1ccnc2cc(Cl)ccc12 (centres unmarked) [HCQ, hydroxychloroquine]
suppression of serum IgE levels ([1]; HCQ 2 mg/ml topical with 2% carvacrol, 5 days): 60.22 ± 11.26%
IL-4 levels compared to the model group ([1]; mouse tissues, HCQ 2 mg/ml or DXM 1 mg/ml topical with 2% carvacrol): no significant difference
inhibition of release of carvacrol-induced IL-6 [1, 3]: 77.09% ± 5.38%
inhibition of release of carvacrol-induced TNF-α [1, 3]: 88.10% ± 4.12%
